Measurements published in US10167300B2, “Metalloenzyme inhibitor compounds as fungicides” (priority 2014, dated 2019).
Read-outs that look alike come from different tables or passages of the source.

Test: Type B (low volume, EC formulation, track sprayer 200 L/ha) assay, leaf blotch of wheat, SEPTTR field isolate (FI SEPTTR)
Type: in vivo, Mycosphaerella graminicola on wheat plants (variety Yuma)
Conditions: Zymoseptoria tritici, 72 h
Experimental: Example A: Evaluation of Fungicidal Activity: Leaf Blotch of Wheat (Mycosphaerella graminicola; Anamorph: Septoria tritici; Bayer Code SEPTTR)
For Type A assays, technical grades of the experimental fungicides in Table 4 below were dissolved in acetone, and then mixed with nine volumes of water containing 110 ppm Triton X-100. The fungicide solutions were applied onto wheat seedlings using an automated booth sprayer. For Type B assays, emulsifiable concentrate (EC) formulations of technical grades of the experimental fungicides in Table 4 below were prepared at 10% (w/v), and then mixed with 150 volumes of 0.1% Trycol 5941. These solutions were applied onto wheat seedlings using an automated track sprayer at 200 L/ha. All sprayed plants were allowed to air dry prior to further handling.
Wheat plants (variety Yuma) were grown from seed in a greenhouse in 50% mineral soil/50% soil-less Metro mix until the first leaf was fully emerged, with 7-10 seedlings per pot. Prior to or after application of experimental fungicides, plants were inoculated either with spores of a standard laboratory SEPTTR isolate (SI SEPTTR) or with spores from a SEPTTR field isolate collected from Wellsbourne, England in 2012 (FI SEPTTR). After inoculation the plants were kept for 3 days at 20° C. in 100% relative humidity (one day in a dark dew chamber followed by two days in a lighted dew chamber). Plants were then transferred to a 20° C. greenhouse for disease development. When disease symptoms were fully expressed on untreated plants, infection levels on treated plants were assessed on a scale of 0 to 100 percent disease severity. Percent disease control was calculated using the ratio of disease severity on treated plants relative to untreated plants.

[1] = field isolate, low volume EC, 100 g/ha, 3 Day Curative, wheat (Yuma), read-out: Disease Control, FI SEPTTR Type B Assay (100 g/ha) 3 DC
[2] = field isolate, low volume EC, 100 g/ha, 3 Day Protectant, wheat (Yuma), read-out: Disease Control, FI SEPTTR Type B Assay (100 g/ha) 3 DP
[3] = SEPTTR field isolate, low volume Type B assay, 100 g/ha, 3 Day Curative, wheat leaf blotch, read-out: Disease Control, FI SEPTTR Type B Assay (100 g/ha) 3 DC
[4] = SEPTTR field isolate, low volume Type B assay, 100 g/ha, 3 Day Protectant, wheat leaf blotch, read-out: Disease Control, FI SEPTTR Type B Assay (100 g/ha) 3 DP

Structure (SMILES) | pest or weed control at 100 g/ha [1] | pest or weed control at 100 g/ha [2] | other results
COC(c1cncnc1)(c1ccc(-c2ccc(OC(F)(F)F)cn2)cn1)C(C)(C)C (stereo not shown) [Compound 173] | 80 to 100% | 80 to 100% | 
CC(C)(C#N)c1ccc(-c2ccc(C(O)(c3cncnc3)C(C)(C)C)nc2)c(C#N)c1 (stereo not shown) [Compound 175, 5-(2-cyanopropan-2-yl)-2-(6-(1-hydroxy-2,2-dimethyl-1-(pyrimidin-5-yl)propyl)pyridin-3-yl)benzonitrile] | 80 to 100% | 80 to 100% | 
CCOC(CC)(c1cncnc1)c1ccc(-c2ccc(OC(F)(F)F)cc2)cn1 (stereo not shown) [Compound 244] | < 40% | 40 to 59% | 
CC(C)(C)C(O)(c1ccc(-c2ccc(OC(F)(F)F)cn2)cn1)c1cnccn1 (stereo not shown) [Compound 174] | 60 to 79% | 80 to 100% | 
CC(C)(C)C(O)(c1ccc(-c2ccc(OCC(F)(F)F)cc2)cn1)c1cnccn1 (stereo not shown) [Compound 225] | 80 to 100% | 60 to 79% | 
CC(C)(C)C(O)(c1cncnc1)c1ccc(-c2ccc(F)cc2Cl)cn1 (stereo not shown) [Compound 166] | 80 to 100% | 80 to 100% | 
C#CCOC(CC)(c1cncnc1)c1ccc(-c2ccc(OC(F)(F)F)cc2)cn1 (stereo not shown) [Compound 260] |  |  | pest or weed control at 100 g/ha [3]: < 40%; pest or weed control at 100 g/ha [4]: 40 to 59%
CC(O)(c1cncnc1)c1ccc(-c2ccc(OC(F)(F)F)cc2F)cn1 (stereo not shown) [Compound 221] | < 40% | 40 to 59% | 
CC(C)(C)C(O)(c1ccc(-c2ccc(OC(F)(F)F)cc2)cn1)c1cccnc1Cl (stereo not shown) [Compound 235] | 60 to 79% | 80 to 100% | 
CCOC(c1cncnc1)(c1ccc(-c2ccc(OC(F)(F)F)cc2)cn1)C(C)C (stereo not shown) [Compound 272] |  |  | pest or weed control at 100 g/ha [3]: < 40%; pest or weed control at 100 g/ha [4]: 60 to 79%
CC(C)(C#N)c1ccc(-c2ccc(C(O[Si](C)(C)C)(c3cncnc3)C(C)(C)C)nc2)cc1 (stereo not shown) [Compound 259] |  |  | pest or weed control at 100 g/ha (read-out: Disease Control, FI SEPTTR Type B Assay (100 g/ha) 3 DC): 60 to 79%; pest or weed control at 100 g/ha (read-out: Disease Control, FI SEPTTR Type B Assay (100 g/ha) 3 DP): 80 to 100%
COC(c1cncnc1)(c1ccc(-c2ccc(C(C)(C)C#N)cc2F)cn1)C(C)(C)C (stereo not shown) [Compound 228] | 80 to 100% | 80 to 100% | 
CC(C)(C)C(O)(Cc1cncnc1)c1ccc(-c2ccc(OCC(F)(F)F)nc2)cn1 (stereo not shown) [Compound 195] | < 40% | 40 to 59% | 
CC(C)(C)C(O)(Cc1cccnc1)c1ccc(-c2ccc(C3(C#N)CC3)cc2)cn1 (stereo not shown) [Compound 227] | < 40% | 40 to 59% | 
COc1ncncc1C(O)(c1ccc(-c2ccc(Cl)cc2)cn1)C(C)(C)C (stereo not shown) [Compound 247] | < 40% | 80 to 100% | 
Cc1cc(C(C)(C)C#N)ccc1-c1ccc(C(O)(c2cncnc2)C(C)(C)C)nc1 (stereo not shown) [Compound 223] | 80 to 100% | 80 to 100% | 
CC(C)(C#N)c1ccc(-c2ccc(C(O)(c3cncc(F)c3)C(C)(C)C)nc2)cc1 (stereo not shown) [Compound 262] |  |  | pest or weed control at 100 g/ha [3]: 80 to 100%; pest or weed control at 100 g/ha [4]: 80 to 100%
Cc1cc(OC(F)(F)F)ccc1-c1ccc(C(O)(c2cnccn2)C(C)(C)C)nc1 (stereo not shown) [Compound 224] | 40 to 59% | 60 to 79% | 
C#CCOC(C)(c1cncnc1)c1ccc(-c2ccc(OC(F)(F)F)cc2F)cn1 (stereo not shown) [Compound 237] | < 40% | 40 to 59% | 
COC(c1cncnc1)(c1ccc(-c2ccc(OC(F)(F)F)cc2F)cn1)C(C)C (stereo not shown) [Compound 249] | 60 to 79% | 80 to 100% | 
CC#CC(OCC)(c1cncnc1)c1ccc(-c2ccc(OC(F)(F)F)cc2F)cn1 (stereo not shown) [Compound 204] | < 40% | 60 to 79% | 

Structure (SMILES) | pest or weed control at 100 g/ha [1] | pest or weed control at 100 g/ha [2] | other results
COc1ncncc1C(O)(c1ccc(-c2ccc(OC(F)F)cc2)cn1)C(C)(C)C (stereo not shown) [Compound 273] |  |  | pest or weed control at 100 g/ha [3]: < 40%; pest or weed control at 100 g/ha [4]: 80 to 100%
Cc1cc(C(C)(C)C#N)cnc1-c1ccc(C(O)(c2cncnc2)C(C)(C)C)nc1 (stereo not shown) [Compound 239] | 80 to 100% | 80 to 100% | 
COC(c1cncnc1)(c1ccc(-c2ccc(C3(C#N)CC3)cc2)cn1)C(C)(C)C (stereo not shown) [Compound 192] | 80 to 100% | 80 to 100% | 
Cc1cc(C(C)(C)C#N)cc(C)c1-c1ccc(C(O)(c2cncnc2)C(C)(C)C)nc1 (stereo not shown) [Compound 252] | 80 to 100% | 80 to 100% | 
CC(C)(C#N)c1ccc(-c2ccc(C(O)(c3cncnc3)C(C)(C)C)nc2)c(Cl)c1 (stereo not shown) [Compound 265] |  |  | pest or weed control at 100 g/ha [3]: 80 to 100%; pest or weed control at 100 g/ha [4]: 80 to 100%
CCOC(CC)(c1cncnc1)c1ccc(-c2ccc(OC(F)(F)F)cc2F)cn1 (stereo not shown) [Compound 190] | 60 to 79% | 40 to 59% | 
CC(C)(C#N)c1ccc(-c2ccc(C(O)(c3cncnc3)C(C)(C)C)nc2)c(F)c1 (stereo not shown) [Compound 226] | 80 to 100% | 80 to 100% | 
C#CCOC(C#CC)(c1cncnc1)c1ccc(-c2ccc(OC(F)(F)F)cc2)cn1 (stereo not shown) [Compound 270] |  |  | pest or weed control at 100 g/ha [3]: < 40%; pest or weed control at 100 g/ha [4]: 40 to 59%
CC(C)(C)C(O)(c1ccc(-c2ccc(OCC(F)(F)F)nc2)cn1)c1cnccn1 (stereo not shown) [Compound 180] | 60 to 79% | 40 to 59% | 
CC(C)(C)c1ccc(-c2ccc(C(O)(Cc3cncnc3)C(C)(C)C)nc2)cc1 (stereo not shown) [Compound 181] | < 40% | 60 to 79% | 
CC(C)C(O)(c1cncnc1)c1ccc(-c2ccc(OC(F)(F)F)cc2F)cn1 (stereo not shown) [Compound 230] | < 40% | 80 to 100% | 
COc1ncncc1C(O)(c1ccc(-c2ccc(C(C)(F)F)cc2)cn1)C(C)(C)C (stereo not shown) [Compound 246] | 60 to 79% | 80 to 100% | 
COc1ncncc1C(O)(c1ccc(-c2ccc(OC(F)(F)F)cc2C)cn1)C(C)(C)C (stereo not shown) [Compound 222] | 40 to 59% | 60 to 79% | 
COC(C)(c1cncnc1)c1ccc(-c2ccc(OC(F)(F)F)cc2F)cn1 (stereo not shown) [Compound 206] | < 40% | 40 to 59% | 
COc1ncncc1C(O)(c1ccc(-c2ccc(OCC(F)(F)F)cn2)cn1)C(C)(C)C (stereo not shown) [Compound 186] | 40 to 59% | 80 to 100% | 
CC(C)(C)c1ccc(-c2ccc(C(O)(Cc3cccnc3)C(C)(C)C)nc2)cc1 (stereo not shown) [Compound 201] | 60 to 79% | 80 to 100% | 
CC#CC(OC)(c1cncnc1)c1ccc(-c2ccc(OC(F)(F)F)cc2)cn1 (stereo not shown) [Compound 217] | < 40% | < 40% | 
COc1ncncc1C(O)(c1ccc(-c2ccc(OC(F)(F)F)cc2F)cn1)C(C)(C)C (stereo not shown) [Compound 187] | 80 to 100% | 80 to 100% | 
C#CCOC(c1cncnc1)(c1ccc(-c2ccc(OC(F)(F)F)cc2F)cn1)C1CC1 (stereo not shown) [Compound 250] | < 40% | 80 to 100% | 
COC(c1cncnc1)(c1ccc(-c2ccc(C(C)(C)C#N)cc2)cn1)C(C)(C)C (stereo not shown) [Compound 214] | < 40% | 80 to 100% | 
